Results taken from a melting point compilation (Tetko et al.; mined from patent text by program, amines drawn as free bases though some values may be those of a salt).

| SMILES | melting point [°C] |
| --- | --- |
| CCC(OC(=O)C1CC1)c1ccc(Cl)c2nc3n(c12)CCCN3c1ccc(Cl)cc1Cl (centres undefined) | 159 to 161 |
| CS(=O)(=O)Oc1ccc2c(c1)CN(C(=O)CCCCCN1CCN(c3cccc(C(F)(F)F)c3)CC1)C2 | 109 |
| CCc1nc2c(N)nc3cc(CCC(=O)N4CCSC4)ccc3c2n1CC(C)(C)O | 210 to 212 |
| CC(C(O)CCc1ccc(OC(F)(F)F)cc1)n1cncn1 (centres undefined) | 69 |
| N#Cc1ccc(N(Cc2ccc(O)c(Br)c2)n2cnnc2)cc1-c1ccoc1 | 200 to 201 |
| Cc1cc(C2=NOC(c3cc(Cl)cc(Cl)c3)(C(F)(F)F)C2)ccc1C(=O)NCC(F)(F)F (centres undefined) | 156 to 157 |
| O=C(c1cccs1)c1cnn2c(-c3cccc(-c4nnnn4CC4CCC4)c3)ccnc12 | 204 |
| COc1ccccc1C(N)=CC#N | 74 to 75 |
| N#CCCn1nnc2cc3c(cc2c1=O)OC1CCCN1C3=O (centres undefined) | 184 to 186 |
| O=S1(=O)NCN(C2CCCCC2)c2cc(Cl)ccc21 | 178 to 180 |
| CC1CCCCC1OC(=O)c1cc(NCSc2ccccc2)ccc1Cl (centres undefined) | 143 to 144 |
| COC(=O)c1ccc(-c2nc(COc3ccc(CO)cc3OC)c(C)o2)cc1 | 170 to 171 |
| CC(CO)N1CCN(c2cccc3c2OCCO3)CC1 (centres undefined) | 91 to 92 |
| COc1ccc(C(=O)Nc2ccc(F)cc2)cc1NS(=O)(=O)c1ccc([N+](=O)[O-])cc1 | 208 to 211 |
| Cc1oc(-c2ccccc2)nc1COc1ccc(Cn2cc(CC(=O)O)c(-c3ccccc3)n2)cn1 | 144 to 145 |
| CCOC(=O)Cc1nc2ccccc2n1-c1ccccc1 | 87 to 89 |
| O=S(=O)(Cl)c1ccc(CCc2ccccc2)cc1 | 90 to 95 |
| COc1ccc(CN2C(=O)C(C)(c3cc(NC=O)ccc3Cl)c3cc(Cl)ccc32)c(OC)c1 (centres undefined) | 190 |
| C[C@H](NC(=O)Cc1cc(F)cc(F)c1)C(=O)N[C@@H]1C(=O)NCCS[C@@H]1c1ccccc1 | 128 to 133 |
| Oc1ccc2c(-c3ccccc3)coc2c1 | 138 to 143 |
| Cc1ccc(C(=O)c2c(Br)cc(CC(=O)O)n2C)cc1 | 155 to 157 |
| CCC(Oc1cc(C)c(Cl)c(C)c1)C(=O)NCc1cccs1 (centres undefined) | 105 to 107 |
| CCc1cc(C(=O)O)c(Nc2ccc(F)cc2[N+](=O)[O-])s1 | 198 to 200 |
| CN(c1ccc(Cl)cc1)S(=O)(=O)c1cc(C(=O)Nc2ccc(S(C)=O)cc2)ccn1 (centres undefined) | 172 to 174 |
| CC#COc1ccc2c(=O)c3ccccc3oc2c1 | 142 to 144 |
| CCOC(=O)c1cnc2sc3c(n12)CCCCCC3 | 79 to 81 |
| CCOC(=O)c1sc(Br)c2c1OCO2 | 93 |

| SMILES | melting point [°C] |
| --- | --- |
| O=C(Nc1ccc2cc(CN3CCCC3)cnc2c1F)c1ccc(-c2ccc(Cl)cc2)cc1 | 206 to 208 |
| CCCCCCOc1cccc(C[C@H](NC(C)=O)[C@H](O)CNCc2cccc(CC)c2)c1 | 102 to 105 |
| N#CC1C(=O)Nc2cc(Cl)ccc2C1=O (centres undefined) | 314 to 316 |
| CN(c1ccccc1C=CC1=NCCC1)C1CCCCC1 | 163 to 164 |
| COc1ccc2c(c1)C(C)(CC(=O)O)C(=O)N2C (centres undefined) | 120 to 121 |
| CC(=O)N[C@@H](C)COc1ccc2nc(-c3cc(F)c(OCC4CC4)cc3F)oc2c1F | 153 |
| Cc1cc(OCc2ccccc2)c2cc(C(=O)O)[nH]c2c1 | 178 to 180 |
| Nc1ccc(Oc2ncnc(Oc3ccccc3Cl)c2F)c(Cl)c1Cl | 162 to 163 |
| COCC1(OP(=O)(O)O)CCN(c2c(F)cc(N3C[C@H](CNC(C)=O)OC3=O)cc2F)CC1 | > 140 |
| O=C(O)c1cn(-c2ccc(F)cc2)c(C=Cc2ccncc2)cc1=O | 205 to 215 |
| COCCOc1ccc(N)cc1S(=O)(=O)O | > 250 |
| OCc1cc(Cl)cc(Cl)c1Cl | 90 to 93 |
| COc1ccc(/C=C/c2nc3c([nH]2)c(=O)n(C)c(=O)n3C)c(OC)c1C | > 280 |
| O=C(O)CCCCCc1nn(-c2ccc(F)cc2)c2c1CCC2 | 64 to 67 |
| Cc1[nH]c(C(=O)N2CCC(C(=O)N(C)CCN(C)C)CC2)c(C)c1-c1nc2ccc(C(=O)c3ccccc3)cc2[nH]1 | 264 to 266 |
| CC(C)N1C(=O)NC(c2ccccc2)c2cc3c(cc21)OCO3 (centres undefined) | 165 to 168 |
| CN1c2ccccc2CC(=O)c2ccccc21 | 92 to 93 |
| Cc1cc(-c2ccccc2)nn1CCN | 131 to 132 |
| CS(=O)(=O)c1ccc(-c2cnn(Cc3ccccc3)c(=O)c2Cl)cc1 | 166 to 167 |
| CSc1nc(N)c(O)c(=O)[nH]1 | 243 to 245 |
| Cc1ccc(NS(=O)(=O)c2ccc(Br)cc2)c(F)c1 | 111 |
| CCC1(O)CC(=O)OCc2c1cc1n(c2=O)Cc2c-1nc1ccccc1c2-c1ccccc1 (centres undefined) | > 250 |
| O=C(CCl)Nc1nc(C(Cl)(Cl)Cl)ns1 | 146 |
| CCC(OC(=O)COC)c1ccc(Cl)c2nc3n(c12)CCCN3c1ccc(Cl)cc1Cl (centres undefined) | 156 to 158 |
| Cc1ccccc1NC(=O)C=CC=CC1(F)CC1c1ccc(Br)c(Br)c1 (centres undefined) | 174 to 176 |
| CS(=O)(=O)c1nc2c([nH]1)N(Cc1ccc(Cl)cc1)C1NCCN1C2=O (centres undefined) | 282 to 284 |

Results, then the compound that gave them:

| melting point [°C] | SMILES |
| --- | --- |
| 154 to 156 | N#CC1(NC(=O)c2ccccc2C(=O)O)CCCCC1 |
| 128 to 130 | CCCCNC(=O)NS(=O)(=O)c1cc(I)ccc1C(=O)OC |
| 118 to 122 | COc1c(C(=O)O)ccc2ccccc12 |
| 149 to 152 | CC(C)(C)c1cccc2nc(C(F)(F)F)[nH]c12 |
| 159 to 160 | COc1cc(OC)c(C(=O)Nc2cccc3c2CCN(C)C3)cc1OC |
| 188 to 189 | NC(=O)N1C(=O)Cc2ccc(-c3ccccc3)cc21 |
| 128 to 130 | CCCCCCCCOc1ccc(-c2ncc(O)cc2Cl)cc1 |
| 141 to 142 | Cc1cc(-c2c(-c3ccc(F)cc3)ncn2CC2CC2)ccn1 |
| 149 to 150 | Cn1nc(C2CCCC2)cc1N |
| 173 to 175 | COc1cc2c(OC)nc3c4ccccc4nc(OC)c3c2cc1OC |
| 57 to 59 | O=Cc1ccc(C(F)(F)F)cc1Oc1ccccc1 |
| 156 to 158 | CN1C(=N)CN(c2ccccc2)C1=O |
| 133 to 135 | CCOC(=O)CCCn1c(=O)[nH]c2ccccc2c1=O |
| 143 to 144 | OC(c1ccccc1)(c1cccs1)C1CCN(CCc2ccccc2)CC1 (centres undefined) |
| 163 to 165 | Oc1cnccc1CCCOc1cccnc1Oc1ccccc1 |
| 295 to 297 | O=C(NCc1ccc(Cl)cc1)c1cnc2c(Cl)c(Cl)ccc2c1O |
| 119 to 120 | O=C(C(=O)c1ccc(Cl)cc1)c1ccncc1 |
| 179 | COc1cc(-c2nc3ccccc3n2Cc2ccccc2I)cc(OC)c1OC |
| 101 to 105 | COc1cc(/C=C/C=C/C(=O)NCCN2CCC(c3c[nH]c4ccccc34)CC2)ccc1OC(C)=O |
| 195 to 199 | CCc1nc(-c2ccccc2)[nH]c(=O)c1C |
| 100 to 101 | Cc1oc(-c2ccccc2)nc1COc1cc(CO)ccn1 |
| 111 to 113 | COc1c(Cc2ccccc2)cc(C(=O)c2cccs2)c2ccccc12 |
| 206 to 208 | N=C(N)NC[C@H]1CC[C@H](C(=O)O)CC1 |
| 150 | CCCOC(=NC#N)c1ccc(N)nc1 |
| 132 to 134 | COC(=O)COc1cccc(CN(C)c2cnc(-c3ccccc3)c(-c3ccccc3)n2)c1 |
| 99 to 100 | C#CC(C)(C)c1cc(NC(=O)NC)no1 |

| melting point [°C] | SMILES |
| --- | --- |
| 183 | CC(C)(C)OC(=O)N[C@@H](Cc1ccccc1Cl)C(=O)NC1CCC(Nc2cccc3c2C(=O)c2ccccc2C3=O)CC1 (some centres undefined) |
| 91 to 117 | CC(C)C(=NO)c1ccc(Cl)cc1 |
| 137 to 138 | CCCCCCc1nc2cnc3ccccc3c2n1CCCCNS(=O)(=O)c1ccccc1 |
| 114 to 115 | CSC(=S)Nc1ccc2c(c1)OCO2 |
| 188 to 189 | CC(c1ccncc1F)C(O)(Cn1cncn1)c1ccc(F)cc1F (centres undefined) |
| 131 to 132 | COC(=O)C(OC)c1ccc2nc(-c3ccc(Cl)cc3)oc2c1 (centres undefined) |
| 77 to 78 | Cc1ccc(C(=O)c2cccc(C)c2N)cc1 |
| 198 to 200 | CN(C)C(=O)n1nc(NC=O)c2cc(C(F)(F)F)ccc21 |
| > 220 | Cc1cc(=O)n(-c2ccc(Cl)cc2F)c(=O)[nH]1 |
| 129 to 131 | Cc1ccc(C(=O)CC(=O)C2CC2)c(S(C)(=O)=O)c1 |
| 189 to 191 | c1ccc2c(c1)c(N1CCOCC1)nc1c(-c3nc(C4CC4)no3)ncn12 |
| 225 to 226 | Cc1c(-c2cc(F)cc(C(F)(F)F)c2)ccc2nc(N)nc(N)c12 |
| 72.5 to 74 | CCCCCCCCCC(C)NC(=O)C=C(C)c1cccc([N+](=O)[O-])c1 (centres undefined) |
| 205 to 206 | CONC(=O)C=C1SC(Nc2c(Cl)cccc2Cl)=NC1=O |
| 78 to 84 | Cc1ccnn1-c1c(Cl)cc(C(F)(F)F)cc1Cl |
| 234 to 236 | CCn1c(=O)oc2cc(N3C[C@H](C(N)=O)OC3=O)ccc21 |
| 129 to 130 | CNc1c([N+](=O)[O-])cc(C(C)(C)C)cc1[N+](=O)[O-] |
| 139 to 141 | COC1COc2cc(NS(C)(=O)=O)c(Oc3ccccc3)cc2C1=O (centres undefined) |
| 182 | CCCc1nc2c(C)cc(C)nc2n1Cc1ccc(-c2ccccc2-c2c(O)c(=O)c2=O)cc1 |
| 210 to 211 | Cc1ccccc1Sc1c(O)cc(-c2ccccc2)oc1=O |
| 162 | CCOC(=O)N1CCC(NC(=S)Nc2cc(Cl)ccc2NCc2ccccc2)CC1 |
| 234 to 236 | CC(=O)Nc1ccc(S(=O)(=O)Nc2cccnc2Nc2ccccc2)cc1 |
| 225 to 230 | O=C(Nc1ccc(C(=O)N2Cc3ccccc3Cc3ccccc32)cc1)c1cc(Cl)cc(Cl)c1Cl |
| 224 to 225 | Nc1nc(-c2cc(Cl)ccc2Cl)nc(N2CCN(c3ncccn3)CC2)n1 |
| 144 | COC(OC)C(CC(=O)O)C(C)(C)S(=O)(=O)c1ccc(C)cc1 (centres undefined) |
